Data from publication PMC3291892 (Bioconjugate Chemistry, 2012).

Columns and labels:
hA3AR [1] = target: T1, hA3AR (Homo sapiens, UniProt P0DMS8); format: cell-based; settings: at 10 μM; relative to NECA 10 μM
T1 sequence (P0DMS8 1-318): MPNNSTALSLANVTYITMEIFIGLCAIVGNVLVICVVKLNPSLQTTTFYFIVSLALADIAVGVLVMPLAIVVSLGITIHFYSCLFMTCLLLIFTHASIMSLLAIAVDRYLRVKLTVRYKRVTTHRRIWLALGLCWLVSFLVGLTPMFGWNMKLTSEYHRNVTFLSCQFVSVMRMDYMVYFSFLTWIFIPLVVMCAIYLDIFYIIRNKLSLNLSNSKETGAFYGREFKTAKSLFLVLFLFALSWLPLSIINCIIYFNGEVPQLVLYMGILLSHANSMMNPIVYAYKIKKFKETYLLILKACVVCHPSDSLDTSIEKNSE

hA3AR [2] = target: T1, hA3AR; assay: Radioligand binding at hA3AR; settings: A3AR versus A1AR

| Molecule | A3AR efficacy in the functional assay (in words) (hA3AR [1]) | selectivity for A3AR in comparison to the A1AR (hA3AR [2]) [fold] |
| --- | --- | --- |
| CNC(=O)[C@@]12C[C@@H]1[C@@H](n1cnc3c(NCc4cccc(C#CCCCCCc5cn(-c6ccc(F)c([N+](=O)[O-])c6)nn5)c4)nc(Cl)nc31)[C@H](O)[C@@H]2O [Compound 14, (1S, 2R, 3S, 4R, 5S)-4-(2-Chloro-6-(3-(7-(1-(4-fluoro-3-nitrophenyl)-1H-1,2,3-triazol-4-yl)hept-1-ynyl)benzylamino)-9H-purin-9-yl)-2,3-dihydroxybicyclo[3.1.0]hexane-1-carboxylic acid-N-methylamide] | intermediate efficacy | – |
| CNC(=O)[C@@]12C[C@@H]1[C@@H](n1cnc3c(NCc4cccc(C#CCCCc5cn(-c6ccc(F)c(N)c6)nn5)c4)nc(Cl)nc31)[C@H](O)[C@@H]2O [Compound 16, (1S, 2R, 3S, 4R, 5S)-4-(2-Chloro-6-(3-(5-(1-(4-fluoro-3-amino-phenyl)-1H-1,2,3-triazol-4-yl)pent-1-ynyl)benzylamino)-9H-purin-9-yl)-2,3-dihydroxybicyclo[3.1.0]hexane-1-carboxylic acid-N-methylamide] | intermediate efficacy | – |
| C#CCNc1nc(Cl)nc2c1ncn2[C@H]1[C@H](O)[C@H](O)[C@]2(C(=O)NC)C[C@H]12 [Compound 31, (1S, 2R, 3S, 4R, 5S)-4-(2-Chloro-6-(prop-2-ynylamino)-9H-purin-9-yl)-2,3-dihydroxy-N-methylbicyclo[3.1.0]hexane-1-carboxamide] | – | 270 |
| (1S, 2R, 3S, 4R, 5S)-4-[2-Chloro-6-{3-(1,7-octadiynyl)}-9H-purin -9-yl]- 2, 3-dihydroxybicyclo[3.1.0]hexane-1-carboxylic acid N-methylamide [Compound 10] | intermediate efficacy | – |
| (1S, 2R, 3S, 4R, 5S)-4-[2-Chloro-6-{3-(1,8-nonadiynyl)}-9H-purin -9-yl]- 2, 3-dihydroxybicyclo[3.1.0]hexane-1-carboxylic acid N-methylamide [Compound 11] | intermediate efficacy | – |
